Data: patent US10150766B2, “P2X7 modulators” (Jansssen Pharmaceutica NV, priority 2014, dated 2018)
pIC50, pKi: −log10 of the molar value. Where two headings read alike, the source gives them in different places.

What was measured:
P2X7 [1] = target: T1, P2X7 (Homo sapiens (Human), UniProt Q99572); test: P2X7 antagonism in human whole blood, IL-1β release (LPS + Bz-ATP, ELISA); type: cell-based; conditions: LPS 30 ng/ml + Bz-ATP 1 mM; for IC50: Human Whole Blood IC50 (μM); for pIC50: read-out: Human Whole Blood IC50
Experimental: (§1) P2X7 Antagonism in Human Peripheral Blood Mononuclear Cells (PBMCs) and Human Whole Blood.
(§2) Human blood was collected using a blood donor program. PBMCs were isolated from blood using a Ficoll density gradient technique. Briefly, blood was laid on Ficoll solution and centrifuged at ROOM TEMPERATURE for 20 minutes at 2000 rpm. The buffy layer (between red blood cells and plasma) was carefully collected by aspiration, washed with PBS and centrifuged again at 1500 rpm for 15 minutes. The resulting cell pellet was washed and plated on 96 well-plates for experiments. For the Human Whole Blood experiments, 150 μl of human blood was plated on 96 well-plates. Lipopolysaccharide (LPS) (30 ng/ml) was added to each well and incubated for 1 hour. Test compounds were then added and incubated for 30 minutes. The P2X7 agonist, 2′(3′)-O-(4-benzoylbenzoyl) adenosine 5′-triphosphate (Bz-ATP) was then added at a final concentration of 0.5 mM (PBMC) or 1 mM (blood). Cells were incubated for an additional 1.5 hours. At that point, supernatant was collected and stored for IL-1β assay using manufacturer's protocol for enzyme-linked immunosorbant assay (ELISA). Data was expressed as percent control, where control is defined as the difference in IL-1β release in LPS+Bz-ATP samples and LPS only samples. Data was plotted as response (% control) versus concentration to generate IC50 values. […] Data are analyzed and graphed on Graphpad Prism 5. For analysis, each concentration point is averaged from triplicate values and the averaged values are plotted on Graphpad Prism. The IC50 for each compound is then uploaded into 3DX.

P2X7 [2] = target: T1, P2X7; test: Radioligand binding ([3H]A-804598) to membranes of human P2X7-1321N1 cells; conditions: human P2X7-1321N1 membranes, tracer tritiated A-804598, 1 hour at 4° C.
Experimental: P2X7 Antagonism in Recombinant Human P2X7 Cells or Recombinant Rat P2X7 Cells:
human or rat P2X7-1321N1 cells were collected and frozen @ −80° C. On the day of the experiment, cell membrane preparations were made according to standard published methods. […] The compound can be prepared as described in the literature. […] The assay was terminated by filtration (GF/B filters pre-soaked with 0.3% PEI) and washed with washing buffer (Tris-HCl 50 mM). The IC50 generated in the binding assay was corrected for tracer concentration and affinity of the tracer to derive at the affinity (Ki) of the test compounds. The data are presented in Table 2 under the headings: P2X7 human Ki (μM) and P2X7 rat Ki (μM). Data are analyzed and graphed on Graphpad Prism 5. For analysis, each concentration point is averaged from triplicate values and the averaged values are plotted on Graphpad Prism.

P2X7 [3] = target: T1, P2X7; test: P2X7 antagonism in human peripheral blood mononuclear cells (PBMCs), IL-1β release (LPS + Bz-ATP, ELISA); type: cell-based; conditions: P2X7, 10 μM test compound, LPS 30 ng/ml + Bz-ATP 0.5 mM, read-out: PBMC @10 μM (% control)
Experimental: as §1, §2

rat P2X7 = rat P2X7 (Rattus norvegicus (Rat), UniProt Q64663); test: P2X7 antagonism in recombinant rat P2X7 cells (column headed P2X7 Rat IC50); type: binding
Experimental: The in vitro affinity of the compounds of the invention for the rat and human P2X7 receptor was determined using a human peripheral blood mononuclear cells (PBMCs), a human whole blood assay, a Ca^2+ flux and radioligand binding assay in recombinant human P2X7 cells and recombinant rat P2X7 cells. […] The data represented in Tables 2 may represent a value from a single determination or when the experiment was run more than once, the data represents the average from between 2-12 runs.
P2X7 Antagonism in Recombinant Human P2X7 Cells or Recombinant Rat P2X7 Cells: […]

Sequence of rat P2X7 (Q64663 whole entry): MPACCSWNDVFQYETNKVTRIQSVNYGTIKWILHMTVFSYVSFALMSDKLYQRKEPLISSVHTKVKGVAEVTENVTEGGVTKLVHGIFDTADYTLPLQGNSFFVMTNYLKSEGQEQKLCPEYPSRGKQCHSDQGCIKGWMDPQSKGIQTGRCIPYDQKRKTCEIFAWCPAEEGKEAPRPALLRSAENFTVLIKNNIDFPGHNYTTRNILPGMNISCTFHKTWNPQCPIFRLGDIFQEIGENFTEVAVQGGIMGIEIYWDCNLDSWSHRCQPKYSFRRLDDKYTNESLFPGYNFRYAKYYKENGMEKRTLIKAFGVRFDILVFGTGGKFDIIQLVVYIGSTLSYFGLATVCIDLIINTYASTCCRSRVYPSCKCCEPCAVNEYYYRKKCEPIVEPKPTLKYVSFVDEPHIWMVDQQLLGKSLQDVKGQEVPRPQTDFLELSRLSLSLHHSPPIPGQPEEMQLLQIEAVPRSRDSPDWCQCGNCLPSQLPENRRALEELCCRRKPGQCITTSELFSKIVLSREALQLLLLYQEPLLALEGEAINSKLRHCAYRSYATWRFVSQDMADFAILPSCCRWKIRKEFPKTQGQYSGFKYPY
T1 sequence (Q99572 whole entry): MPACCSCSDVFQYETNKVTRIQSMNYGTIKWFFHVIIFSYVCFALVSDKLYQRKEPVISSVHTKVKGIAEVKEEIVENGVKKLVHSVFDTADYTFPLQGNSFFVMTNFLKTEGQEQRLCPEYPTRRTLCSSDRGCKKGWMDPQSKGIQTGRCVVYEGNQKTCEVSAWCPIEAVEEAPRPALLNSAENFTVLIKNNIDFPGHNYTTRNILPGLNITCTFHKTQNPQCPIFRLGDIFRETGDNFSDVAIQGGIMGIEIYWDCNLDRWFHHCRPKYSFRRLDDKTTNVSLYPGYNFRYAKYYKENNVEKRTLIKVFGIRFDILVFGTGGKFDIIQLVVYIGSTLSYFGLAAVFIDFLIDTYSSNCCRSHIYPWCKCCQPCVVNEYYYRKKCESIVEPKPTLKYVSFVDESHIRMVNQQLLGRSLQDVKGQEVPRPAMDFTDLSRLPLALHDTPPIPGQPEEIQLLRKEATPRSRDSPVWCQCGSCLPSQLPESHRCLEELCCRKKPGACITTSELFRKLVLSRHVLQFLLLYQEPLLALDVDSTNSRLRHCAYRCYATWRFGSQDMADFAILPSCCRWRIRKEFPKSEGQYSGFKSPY

Structure (SMILES) | IC50 (P2X7 [1]) [µM] | pKi (P2X7 [2]) | remaining activity at 10 µM (P2X7 [3]) [%] | pIC50 (rat P2X7) | pIC50 (P2X7 [1])
Cc1nc(-c2ccn[nH]2)c2c(n1)C1CCCC(C2)N1C(=O)c1cccc(Cl)c1Cl (centres unmarked) [Example 1, (2,3-dichlorophenyl)(2-methyl-4-(1H-pyrazol-5-yl)-5,6,7,8,9,10-hexahydro-6,10-epiminocycloocta[d]pyrimidin-11-yl)methanone] | 0.027 | 7.50 | 3.3 | 7.00 | –
Cc1nc(-c2ccn[nH]2)c2c(n1)[C@@H]1CCC[C@H](C2)N1C(=O)c1ccc(F)cc1Cl [Example 9, (2-chloro-4-fluorophenyl)((6R,10S)-2-methyl-4-(1H-pyrazol-5-yl)-5,6,7,8,9,10-hexahydro-6,10-epiminocycloocta[d]pyrimidin-11-yl)methanone] | – | – | 91.3 | < 5.00 | 5.53
Cc1nc(-c2ccn[nH]2)c2c(n1)[C@@H]1CCC[C@H](C2)N1C(=O)c1ccc(Cl)c(F)c1Cl [Example 10, (2,4-dichloro-3-fluorophenyl)((6R,10S)-2-methyl-4-(1H-pyrazol-5-yl)-5,6,7,8,9,10-hexahydro-6,10-epiminocycloocta[d]pyrimidin-11-yl)methanone] | 0.459 | 6.20 | 22.4 | – | –
Cc1nc(-c2ccn[nH]2)c2c(n1)[C@@H]1CCC[C@H](C2)N1C(=O)c1cccc(Cl)c1Cl [Example 11, (2,3-dichlorophenyl)((6R,10S)-2-methyl-4-(1H-pyrazol-5-yl)-5,6,7,8,9,10-hexahydro-6,10-epiminocycloocta[d]pyrimidin-11-yl)methanone] | 0.302 | 6.30 | 24.4 | 6.02 | –
Cc1nc(-c2ccn[nH]2)c2c(n1)[C@@H]1CCC[C@H](C2)N1C(=O)c1ccc(Cl)cc1F [Example 12, (4-chloro-2-fluorophenyl)((6R,10S)-2-methyl-4-(1H-pyrazol-5-yl)-5,6,7,8,9,10-hexahydro-6,10-epiminocycloocta[d]pyrimidin-11-yl)methanone] | – | – | 92.6 | < 5.00 | 5.21
Cc1nc(-c2ccc(F)cc2)c2c(n1)[C@@H]1CCC[C@H](C2)N1C(=O)c1cccc(C(F)(F)F)c1Cl [Example 13, (2-chloro-3-(trifluoromethyl)phenyl)((6R,10S)-4-(4-fluorophenyl)-2-methyl-5,6,7,8,9,10-hexahydro-6,10-epiminocycloocta[d]pyrimidin-11-yl)methanone] | 5.08 | – | 22.2 | 7.05 | –
Cc1nc(-c2ccc(F)cc2)c2c(n1)[C@@H]1CCC[C@H](C2)N1C(=O)c1ccc(F)cc1Cl [Example 16, (2-chloro-4-fluorophenyl)((6R,10S)-4-(4-fluorophenyl)-2-methyl-5,6,7,8,9,10-hexahydro-6,10-epiminocycloocta[d]pyrimidin-11-yl)methanone] | 7.38 | – | 84.8 | < 5.00 | –
Cc1nc(-c2ccn[nH]2)c2c(n1)[C@H]1CCC[C@@H](C2)N1C(=O)c1ccc(Cl)cc1Cl [Example 20, (2,4-dichlorophenyl)((6S,10R)-2-methyl-4-(1H-pyrazol-5-yl)-5,6,7,8,9,10-hexahydro-6,10-epiminocycloocta[d]pyrimidin-11-yl)methanone] | 0.221 | 6.92 | -9.9 | – | –
Cc1nc(-c2ccn[nH]2)c2c(n1)[C@H]1CCC[C@@H](C2)N1C(=O)c1ccc(Cl)c(F)c1Cl [Example 23, (2,4-dichloro-3-fluorophenyl)((6S,10R)-2-methyl-4-(1H-pyrazol-5-yl)-5,6,7,8,9,10-hexahydro-6,10-epiminocycloocta[d]pyrimidin-11-yl)methanone] | 0.018 | 7.50 | -24.7 | – | –
Cc1nc(-c2cnn(C)c2)c2c(n1)[C@H]1CCC[C@@H](C2)N1C(=O)c1cccc(Cl)c1Cl [Example 31, (2,3-dichlorophenyl)((6S,10R)-2-methyl-4-(1-methyl-1H-pyrazol-4-yl)-5,6,7,8,9,10-hexahydro-6,10-epiminocycloocta[d]pyrimidin-11-yl)methanone] | 2.67 | – | -0.9 | < 5.00 | –
Cc1nc(-c2cnn(C)c2)c2c(n1)[C@H]1CCC[C@@H](C2)N1C(=O)c1ccnc(C(F)(F)F)c1Cl [Example 32, (3-chloro-2-(trifluoromethyl)pyridin-4-yl)((6S,10R)-2-methyl-4-(1-methyl-1H-pyrazol-4-yl)-5,6,7,8,9,10-hexahydro-6,10-epiminocycloocta[d]pyrimidin-11-yl)methanone] | 1.58 | – | 4.8 | < 5.00 | –
Cc1nc(-c2cnn(C)c2)c2c(n1)[C@H]1CCC[C@@H](C2)N1C(=O)c1ccc(F)c(Cl)c1Cl [Example 33, (2,3-dichloro-4-fluorophenyl)((6S,10R)-2-methyl-4-(1-methyl-1H-pyrazol-4-yl)-5,6,7,8,9,10-hexahydro-6,10-epiminocycloocta[d]pyrimidin-11-yl)methanone] | – | – | 1.2 | < 5.00 | 5.87
Cc1nc(-c2cnn(C)c2)c2c(n1)[C@H]1CCC[C@@H](C2)N1C(=O)c1cccc(C(F)(F)F)c1F [Example 34, (2-fluoro-3-(trifluoromethyl)phenyl)((6S,10R)-2-methyl-4-(1-methyl-1H-pyrazol-4-yl)-5,6,7,8,9,10-hexahydro-6,10-epiminocycloocta[d]pyrimidin-11-yl)methanone] | 8.59 | – | 3.3 | < 5.00 | –
Cc1nc(-c2cnn(C)c2)c2c(n1)[C@H]1CCC[C@@H](C2)N1C(=O)c1ccc(Cl)c(F)c1Cl [Example 35, (2,4-dichloro-3-fluorophenyl)((6S,10R)-2-methyl-4-(1-methyl-1H-pyrazol-4-yl)-5,6,7,8,9,10-hexahydro-6,10-epiminocycloocta[d]pyrimidin-11-yl)methanone] | – | – | 9.1 | < 5.00 | 5.64
Cc1nc(-c2cnn(C)c2)c2c(n1)[C@H]1CCC[C@@H](C2)N1C(=O)c1ccnc(C(F)(F)F)c1F [Example 37, (3-fluoro-2-(trifluoromethyl)pyridin-4-yl)((6S,10R)-2-methyl-4-(1-methyl-1H-pyrazol-4-yl)-5,6,7,8,9,10-hexahydro-6,10-epiminocycloocta[d]pyrimidin-11-yl)methanone] | – | – | 13.3 | < 5.00 | 4.68
Cc1nc(-c2cnn(C)c2)c2c(n1)[C@H]1CCC[C@@H](C2)N1C(=O)c1ccc(Cl)cc1F [Example 38, (4-chloro-2-fluorophenyl)((6S,10R)-2-methyl-4-(1-methyl-1H-pyrazol-4-yl)-5,6,7,8,9,10-hexahydro-6,10-epiminocycloocta[d]pyrimidin-11-yl)methanone] | – | – | 46.8 | < 5.00 | < 5.00
Cc1nc(-c2cnn(C)c2)c2c(n1)[C@H]1CCC[C@@H](C2)N1C(=O)c1cccc(C(F)(F)F)c1C [Example 39, (2-methyl-3-(trifluoromethyl)phenyl)((6S,10R)-2-methyl-4-(1-methyl-1H-pyrazol-4-yl)-5,6,7,8,9,10-hexahydro-6,10-epiminocycloocta[d]pyrimidin-11-yl)methanone] | 1.09 | – | 1 | < 5.00 | –
Cc1nc(-c2ccnn2C)c2c(n1)[C@H]1CCC[C@@H](C2)N1C(=O)c1ccnc(C(F)(F)F)c1Cl [Example 60, (3-chloro-2-(trifluoromethyl)pyridin-4-yl)((6S,10R)-2-methyl-4-(1-methyl-1H-pyrazol-5-yl)-5,6,7,8,9,10-hexahydro-6,10-epiminocycloocta[d]pyrimidin-11-yl)methanone] | 1.98 | – | 21.4 | 6.10 | –
